Assay results reported in publication PMC11819963, “In Vitro CO-Releasing and Antioxidant Properties of Sulfonamide-Based CAI-CORMs in a H2O2-Stimulated Human Achilles Tendon-Derived Cell Model” (Molecules, 2025).
Where two headings read alike, the source gives them in different places.

Legend:
hCA IX [1] = target: T1, hCA IX (Homo sapiens, UniProt Q16790); assay: stopped-flow CO2 hydrase assay, hCA IX; assay type: biochemical; details: mean from three assays, errors ±5–10%
Experimental: (§1) The CO2 concentrations ranged from 1.7 to 17 mM for the determination of the kinetic parameters and inhibition constants. […] The uncatalysed rates were determined in the same manner and subtracted from the total observed rates. […] The inhibition constants were obtained by non-linear least-squares methods using PRISM 3 and the Cheng–Prusoff equation and represent the mean from at least three different determinations.

hCA II [2] = target: T2, hCA II (Homo sapiens, UniProt P00918); assay: stopped-flow CO2 hydrase assay, hCA II; assay type: biochemical; details: mean from three assays, errors ±5–10%
Experimental: as §1

[3] = tested on: Human Achilles tendon-derived tenocytes; assay: cell metabolic activity (MTT test), basal conditions; assay type: cell-based
Experimental: Human Achilles tendon-derived tenocytes (#TEN-F) were purchased by ZenBio Inc. (Durham, NC, USA) and maintained in complete alpha-MEM (EuroClone, Milan, Italy) supplemented with 10% of heat-inactivated FBS (Gibco, Thermo Fisher Scientific, Waltham, MA, USA) and 1% penicillin/streptomycin (EuroClone, Milan, Italy) at 37 °C and 5% CO2 and used from passage 3 up to passage 6.
Cells were seeded in 96-well plates (0.5 × 10^4/well) or 6-well plates (0.5 × 10^5/well) (ThermoFisher Scientific, Waltham, MA, USA) and left to adhere overnight at 37 °C and 5% CO2. For cell metabolic activity experiments (MTT test), tenocytes were treated with increasing concentrations of compounds (range 0–50 µM) for 24 and 48 h. Compounds were dissolved in DMSO to obtain a 200 mM stock solution, and they were afterwards diluted in complete alpha-MEM (DMSO final concentration = 0.1%) for further analyses. In a second set of MTT experiments, tenocytes were pre-incubated with 100 µM H2O2 for 3 h. After that, the pre-incubation medium was discarded and replaced with a fresh one containing the proper compound at increasing concentrations for 24 and 48 h. At the established time points, samples were processed for further analyses.
Tenocytes were seeded in 96 well tissue culture-treated plates (Falcon®, Corning Incorporated, Brooklyn, NY, USA) at 0.5 × 10^4 cells/well. Untreated cells (0 µM) were set as control (100% of cell metabolic activity). At the established time points, the exposure media were replaced by fresh medium containing 3-(4,5-dimethylthiazol-2-yl)-2,5-diphenyltetrazolium bromide (MTT) 0.5 mg/mL (Merck, Darmstadt, Germany) and processed as elsewhere reported [18]. The optical density in each well was measured using a spectrophotometer (Thermo Fisher Scientific, Waltham, MA, USA) at a wavelength of 540 nm. Each experiment was performed three times in triplicates per experimental condition (n = 9).

hCA XII [4] = target: T3, hCA XII (Homo sapiens, UniProt O43570); assay: stopped-flow CO2 hydrase assay, hCA XII; assay type: biochemical; details: mean from three assays, errors ±5–10%
T3 sequence (O43570 25-354): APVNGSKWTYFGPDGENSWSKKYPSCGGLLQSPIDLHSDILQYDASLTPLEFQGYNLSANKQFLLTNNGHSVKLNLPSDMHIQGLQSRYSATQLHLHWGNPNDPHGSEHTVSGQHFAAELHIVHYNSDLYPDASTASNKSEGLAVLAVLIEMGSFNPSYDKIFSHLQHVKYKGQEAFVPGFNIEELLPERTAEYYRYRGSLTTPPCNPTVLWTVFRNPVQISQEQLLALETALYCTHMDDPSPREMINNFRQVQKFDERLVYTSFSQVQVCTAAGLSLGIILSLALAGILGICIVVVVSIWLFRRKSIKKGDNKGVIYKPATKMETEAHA
Experimental: as §1

hCA I = hCA I (Homo sapiens, UniProt P00915); details: cited from earlier work
hCA I, sequence (P00915 whole entry): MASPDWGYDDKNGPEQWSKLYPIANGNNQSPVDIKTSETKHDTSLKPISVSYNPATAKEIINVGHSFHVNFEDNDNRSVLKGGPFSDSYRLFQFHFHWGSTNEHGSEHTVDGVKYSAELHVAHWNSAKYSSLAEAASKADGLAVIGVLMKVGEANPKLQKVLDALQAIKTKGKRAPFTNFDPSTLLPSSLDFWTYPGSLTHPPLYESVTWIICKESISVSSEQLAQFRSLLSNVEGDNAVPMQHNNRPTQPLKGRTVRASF

[5] = tested on: reduced myoglobin (deoxy-Mb); assay: myoglobin carbonylation assay (CO release); set-up: species or system horse
Experimental: To determine the CO-releasing properties of the designed compounds, the myoglobin carbonylation assay was employed, with some deviations from the standard protocol, as previously reported. The analysed compounds were incubated with reduced myoglobin (deoxy-Mb), and spectra were recorded every 30 min up to 300 min. The release of CO was assessed by evaluating the formation of carbonylated myoglobin (Mb-CO) over time (Figure 3). […] The releasing properties of the compounds were also expressed as CO units released after 300 min of incubation with Mb, as reported in Figure S1 (Supplementary Information File).
All the employed reagents were of analytical grade and acquired from Merck (Milan, Italy). Gaseous CO was obtained from Rivoira (Milan, Italy). A Shimadzu UV1900 UV-Vis Spectrophotometer from 275 to 700 nm at the scanning rate of 200 nm/min was used to record UV-Vis absorption spectra in a disposable plastic cuvette (path length 0.44 cm). The second derivative spectra were generated with the Origin Lab software, and the Savitzky–Golay method was applied using 25 data points for the differentiation process. Neither an increase nor a decrease in the number of points caused changes in the wavelength or in the bandwidth. Lyophilised horse heart Mb was dissolved in phosphate-buffered saline flushed with N2 (PBS, 0.01 M, pH 7.4 to a 20–22 μM final concentration). Two millilitres of this freshly prepared stock solution were placed in a cuvette to record the UV-Vis absorption spectrum of met-Mb. Next, the solutions were divided into two halves: 10 μL of sodium dithionite (30 mg/mL) was added to the first half (reference), and the UV–Vis spectrum of deoxy-Mb was registered. After that, the solution was flushed with CO gas, and the Mb-CO spectrum was acquired. Sodium dithionite was added to the second half (sample), and a spectrum was recorded. Afterwards, a CORM DMSO solution was added to a final CORM concentration of 1.67 μM, 3.33 μM or 20 μM and gently mixed. The solution was covered with 300 μL of light mineral oil to avoid CO escaping and oxygenation of Mb, and the absorption spectrum was recorded at t = 0. Spectra were acquired every 30 min for 300 min, keeping the sample at 37 °C. When necessary, a freshly prepared sodium dithionite solution was added. After 300 min, the total Mb concentration at the end of the assay was determined by flushing the sample with CO gas. Mb-CO concentration at each time point was determined, as previously reported. Each experiment was replicated three times, and the data were expressed as mean ± SEM.

hCA II [6] = target: T2, hCA II; set-up: method as in earlier work; details: alkyne precursors marked a in Table S1; cited from earlier work
hCA IX [7] = target: T1, hCA IX; set-up: method as in earlier work; details: alkyne precursors marked a in Table S1; cited from earlier work
hCA XII [8] = target: T3, hCA XII; set-up: method as in earlier work; details: alkyne precursors marked a in Table S1; cited from earlier work

Compound | Ki (hCA IX [1]) [nM] | Ki (hCA II [2]) [nM] | cell metabolic activity (MTT) ([3]; 24 h exposure, 6.25–50 µM, vs untreated control) | concentration at which cytotoxicity is seen (MTT) ([3]; 48 h exposure) [µM] | Ki (hCA XII [4]) [nM] | Ki (hCA I; stopped-flow CO2 hydrase assay, cells marked a) [µM] | CO-release profile (MbCO formed over time) ([5]; 1:1 and 1:6 CORM:Mb, up to 300 min, comparison within series) | MbCO formed ([5]; after 210 min of incubation, 1:1 CORM–Mb ratio (about 20 μM CORM)) [µM] | Ki (hCA II [6]) [nM] | Ki (hCA IX [7]) [nM] | Ki (hCA XII [8]) [nM] | Ki (hCA I; alkyne precursors marked a in Table S1) [µM]
C#CCOc1ccc(S(N)(=O)=O)cc1.[C-]#[O+].[C-]#[O+].[C-]#[O+].[C-]#[O+].[C-]#[O+].[C-]#[O+].[Co].[Co] [1b, 4-(Prop-2′-ynyloxy)benzenesulfonamide hexacarbonyldicobalt] | 5.4 | 40.9 | significantly increase cell metabolic activity | ≥ 25 | 0.9 | 1.34 | the most efficient | 6.39 |  |  |  | 
C#CCN(CC#C)c1ccc(S(N)(=O)=O)cc1 [C, 4-(diprop-2′-ynylamino)benzenesulfonamide] |  |  |  |  |  |  |  |  | 1780 | 9 | 4.9 | 6.4
